The text below walks through data of BindingDB's records for doi:10.1016/s0014-2999(98)00241-6 (Mcgill University, 1998).

Molecules are shown by their SMILES. pKi: −log10 of the molar value.

This assay has as its target Norepinephrine transporter (Rattus norvegicus, UniProt Q9JIA2).

Compound `c1ccc2c(CCC3CCNCC3)c[nH]c2c1` showed a pKi of 5.56.

`COCCCC/C(=N\OCCN)c1ccc(C(F)(F)F)cc1` [(1E)-5-methoxy-1-[4-(trifluoromethyl)phenyl]pentan-1-one O-(2-aminoethyl)oxime] gave a pKi of 5.87.
